According to article PMC7377239, “Cardiovascular Effects of Polychlorinated Biphenyls and Their Major Metabolites” (Environmental Health Perspectives, 2020):
Read-outs that look alike come from different tables or passages of the source.

Tests used:
[1] = test system: HUVECs; experiment: High-content imaging cytotoxicity in HUVECs, 24 h; type: cell-based, human; details: Homo sapiens, HUVEC, 24 h, HUVECs; for viability at 0.01 µM / activity at 0.01 µM / viability at 0.1 µM / activity at 0.1 µM / viability at 1 µM / activity at 1 µM / viability at 10 µM / activity at 10 µM / viability at 100 µM / activity at 100 µM: 0.00 µM = 100.00; for viability at 0.1 µM / activity at 0.1 µM: 0.10 µM; for minimal effective concentration: top concentration 100.00 µM
Outline: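 Read-out: multiwavelength high-content imaging of Hoechst 33342, MitoTracker Orange and calcein AM after 24 h compound exposure of confluent HUVEC monolayers. POD values were set using a one-SD cutoff from vehicle (0.5% DMSO) means; with no concentration–response, 100μM was assigned as no observable adverse effect level.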

[2] = test system: iCell cardiomyocytes (human iPSC-derived cardiomyocytes); experiment: High-content imaging of cytotoxicity and mitochondrial integrity in iPSC-CMs; type: cell-based; details: Homo sapiens; for viability at 0.01 µM / activity at 0.01 µM / viability at 0.1 µM / activity at 0.1 µM / viability at 1 µM / activity at 1 µM / viability at 10 µM / activity at 10 µM / viability at 100 µM / activity at 100 µM: Cardiomyocyte, 0.00 µM = 100.00; for viability at 0.1 µM / activity at 0.1 µM: 0.10 µM; for minimal effective concentration: iPSC-CM
Outline: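 Cardiomyocytes grown on gelatinized 384-well plates received fresh medium on the experiment day and were then exposed to chemicals at 0.01–100μM. Nuclei and mitochondria were labeled with Hoechst 33342 and MitoTracker™ Orange, then fixed, and imaged on an ImageXpress® Micro Confocal system. Four-parameter logistic concentration–response fits in R, with a one-standard-deviation vehicle cutoff, gave point-of-departure values.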

[3] = 24 hr, read-out: huvec.cyto.24hr
[4] = 24 hr, read-out: huvec.mito.24hr
[5] = 24 hr, read-out: huvec.mitoint.24hr
[6] = 24 hr, read-out: huvec.nma.24hr
[7] = 24 hrs, read-out: huvec.tc.24hrs

SMILES: Oc1ccc(O)c(-c2ccc(Cl)cc2)c1 [2',5'-DiOH PCB3]
- viability at 0.01 µM [1, 3]: 84.3%
- activity at 0.01 µM [1, 4]: 83.2%
- activity at 0.01 µM [1, 5]: 99.1%
- activity at 0.01 µM [1, 6]: 101%
- viability at 0.1 µM [1, 3]: 103%
- activity at 0.1 µM [1, 4]: 103%
- activity at 0.1 µM [1, 5]: 112%
- activity at 0.1 µM [1, 6]: 97.2%
- viability at 1 µM [1, 3]: 75%
- activity at 1 µM [1, 4]: 73.6%
- activity at 1 µM [1, 5]: 104%
- activity at 1 µM [1, 6]: 101%
- viability at 10 µM [1, 3]: 57.5%
- activity at 10 µM [1, 4]: 27.6%
- activity at 10 µM [1, 5]: 10.3%
- activity at 10 µM [1, 6]: 96.2%
- viability at 100 µM [1, 3]: 2.82%
- activity at 100 µM [1, 4]: 0%
- activity at 100 µM [1, 5]: 0%
- activity at 100 µM [1, 6]: 83.3%
- minimal effective concentration ([1]; 24 hr, read-out: huvec.cyto.24hr POD): 0.12 µM
- minimal effective concentration ([1]; 24 hr, read-out: huvec.mito.24hr POD): 0.13 µM
- minimal effective concentration ([1]; 24 hr, read-out: huvec.mitoint.24hr POD): 3.51 µM
- minimal effective concentration ([1]; 24 hr, read-out: huvec.nma.24hr POD): 8.87 µM
- viability at 0.01 µM [1, 7]: 84.5%
- viability at 0.1 µM [1, 7]: 103%
- viability at 1 µM [1, 7]: 75%
- viability at 10 µM [1, 7]: 57.7%
- viability at 100 µM [1, 7]: 89.6%
- minimal effective concentration ([1]; 24 hrs, read-out: huvec.tc.24hrs POD): 0.12 µM
- viability at 0.01 µM ([2]; 1.5 h, read-out: cm.cam.90min): 104%
- activity at 0.01 µM ([2]; 1.5 h, read-out: cm.mii.90min): 107%
- activity at 0.01 µM ([2]; 1.5 h, read-out: cm.mito.90min): 103%
- viability at 0.01 µM ([2]; 1.5 h, read-out: cm.tc.90min): 104%
- viability at 0.1 µM ([2]; 1.5 h, read-out: cm.cam.90min): 94.2%
- activity at 0.1 µM ([2]; 1.5 h, read-out: cm.mii.90min): 114%
- activity at 0.1 µM ([2]; 1.5 h, read-out: cm.mito.90min): 93.9%
- viability at 0.1 µM ([2]; 1.5 h, read-out: cm.tc.90min): 94.3%
- viability at 1 µM ([2]; 1.5 h, read-out: cm.cam.90min): 100%
- activity at 1 µM ([2]; 1.5 h, read-out: cm.mii.90min): 108%
- activity at 1 µM ([2]; 1.5 h, read-out: cm.mito.90min): 100%
- viability at 1 µM ([2]; 1.5 h, read-out: cm.tc.90min): 100%
- viability at 10 µM ([2]; 1.5 h, read-out: cm.cam.90min): 101%
- activity at 10 µM ([2]; 1.5 h, read-out: cm.mii.90min): 84.5%
- activity at 10 µM ([2]; 1.5 h, read-out: cm.mito.90min): 99.4%
- viability at 10 µM ([2]; 1.5 h, read-out: cm.tc.90min): 101%
- viability at 100 µM ([2]; 1.5 h, read-out: cm.cam.90min): 0%
- activity at 100 µM ([2]; 1.5 h, read-out: cm.mii.90min): 0%
- activity at 100 µM ([2]; 1.5 h, read-out: cm.mito.90min): 0%
- viability at 100 µM ([2]; 1.5 h, read-out: cm.tc.90min): 0%
- viability at 0.01 µM ([2]; 24 h, read-out: cm.cam.24hrs): 84.9%
- activity at 0.01 µM ([2]; 24 h, read-out: cm.mii.24hrs): 104%
- activity at 0.01 µM ([2]; 24 h, read-out: cm.mito.24hrs): 82.4%
- viability at 0.01 µM ([2]; 24 h, read-out: cm.tc.24hrs): 85.7%
- viability at 0.1 µM ([2]; 24 h, read-out: cm.cam.24hrs): 100%
- activity at 0.1 µM ([2]; 24 h, read-out: cm.mii.24hrs): 110%
- activity at 0.1 µM ([2]; 24 h, read-out: cm.mito.24hrs): 101%
- viability at 0.1 µM ([2]; 24 h, read-out: cm.tc.24hrs): 100%
- viability at 1 µM ([2]; 24 h, read-out: cm.cam.24hrs): 97.7%
- activity at 1 µM ([2]; 24 h, read-out: cm.mii.24hrs): 98.1%
- activity at 1 µM ([2]; 24 h, read-out: cm.mito.24hrs): 94.2%
- viability at 1 µM ([2]; 24 h, read-out: cm.tc.24hrs): 97.9%
- viability at 10 µM ([2]; 24 h, read-out: cm.cam.24hrs): 45.5%
- activity at 10 µM ([2]; 24 h, read-out: cm.mii.24hrs): 157%
- activity at 10 µM ([2]; 24 h, read-out: cm.mito.24hrs): 40.2%
- viability at 10 µM ([2]; 24 h, read-out: cm.tc.24hrs): 45.4%
- viability at 100 µM ([2]; 24 h, read-out: cm.cam.24hrs): 0%
- activity at 100 µM ([2]; 24 h, read-out: cm.mii.24hrs): 0%
- activity at 100 µM ([2]; 24 h, read-out: cm.mito.24hrs): 0%
- viability at 100 µM ([2]; 24 h, read-out: cm.tc.24hrs): 0%
- minimal effective concentration ([2]; 1.5 h, read-out: cm.cam.90min POD): 32.4 µM
- minimal effective concentration ([2]; 1.5 h, read-out: cm.mii.90min POD): 7.9 µM
- minimal effective concentration ([2]; 1.5 h, read-out: cm.mito.90min POD): 12.7 µM
- minimal effective concentration ([2]; 1.5 h, read-out: cm.tc.90min POD): 33.4 µM
- minimal effective concentration ([2]; 24 h, read-out: cm.cam.24hrs POD): 1.84 µM
- minimal effective concentration ([2]; 24 h, read-out: cm.mii.24hrs POD): 2.28 µM
- minimal effective concentration ([2]; 24 h, read-out: cm.mito.24hrs POD): 0.97 µM
- minimal effective concentration ([2]; 24 h, read-out: cm.tc.24hrs POD): 1.88 µM
